Assay results reported in article PMC10108392, “Rimonabant-Based Compounds Bearing Hydrophobic Amino Acid Derivatives as Cannabinoid Receptor Subtype 1 Ligands” (ACS Medicinal Chemistry Letters, 2023).
“Also recorded” adds a separate entry of the source.

Tests used:
mice = assay: Zymosan-induced paw edema; format: in vivo, mouse
Method: Drugs were administered s.c. in the dorsal surface of the right hind paw at the dose of 100 μg/20 μL, 15 min before zymosan. […]
testing. […] Then, the compounds were
Compounds were prepared by freshly diluting
Then, these solutions were injected for
The total time the animal spent licking or biting its paw was calculated.
Then, paw edema was calculated as formerly
Paw volume was quantified using a
Data Analysis and Statistics
Statistically significant differences between
Data were considered statistically
The data and statistical analyses respected the recommendations on experimental design and analysis.

CB1R = molecular target: T1, CB1R (Rattus norvegicus, UniProt P20272); assay: Ligand stimulated [35S]GTPγS binding assay in rat brain membranes; format: biochemical; details: rat brain membranes
T1 construct: Crude membrane fractions were prepared from the brain; from tissue; host or cells: Wistar rat whole brain, crude membrane fraction
T1 sequence (P20272 whole entry): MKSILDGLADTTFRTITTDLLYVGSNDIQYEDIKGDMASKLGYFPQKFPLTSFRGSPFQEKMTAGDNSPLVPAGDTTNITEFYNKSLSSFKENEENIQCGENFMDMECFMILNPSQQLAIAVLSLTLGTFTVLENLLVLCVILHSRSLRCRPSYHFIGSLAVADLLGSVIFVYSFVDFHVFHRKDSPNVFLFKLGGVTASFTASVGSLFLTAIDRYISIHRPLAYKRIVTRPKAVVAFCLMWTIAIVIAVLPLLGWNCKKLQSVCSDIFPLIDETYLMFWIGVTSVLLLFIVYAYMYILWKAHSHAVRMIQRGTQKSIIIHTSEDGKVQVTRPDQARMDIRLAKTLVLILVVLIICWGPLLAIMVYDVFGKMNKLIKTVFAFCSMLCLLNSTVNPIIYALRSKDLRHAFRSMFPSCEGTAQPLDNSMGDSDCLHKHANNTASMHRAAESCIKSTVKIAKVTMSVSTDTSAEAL
Method: Our novel chemical compounds were tested in vitro for their binding ability, efficacy, and potency on CB1R in rat brain membrane homogenate (Table 2 and SI, Figure S1). CB1Rs are the most abundant G-protein coupled receptors in the rodent and mammalian brain; therefore, this is an appropriate model to characterize our ligands in a more physiological system.
In Vitro Biological Assays
Preparation of Brain Membrane Homogenates
Wistar rats were locally bred and handled according to the EU Directive 2010/63/EU and to the Regulations on Animal Protection (40/2013. (II. 14.) Korm. r.) of Hungary. Crude membrane fractions were prepared from the brain. Brains were quickly removed from the euthanized rats and directly put in an ice-cold 50 mM Tris-HCl buffer (pH 7.4). The collected tissue was then homogenized in 30 volumes (v/w) of an ice-cold buffer with a Braun Teflon-glass homogenizer at the highest rpm. The homogenate was centrifuged at 20,000 × g for 25 min, and the resulting pellet was suspended in the same volume of a cold buffer followed by incubation at 37 °C for 30 min to remove endogenous ligands. Centrifugation was then repeated. The final pellets were taken up in five volumes of a 50 mM Tris-HCl (pH 7.4) buffer containing 0.32 M sucrose and stored at -80 °C. Prior to the experiment, aliquots were thawed and centrifuged at 20,000 ×g for 25 min and then they were resuspended in 50 mM Tris-HCl (pH 7.4), homogenized with a Douncer, followed by the determination of the protein concentration by the method of Bradford. The membrane suspensions were immediately used either in radioligand binding experiments or in [35S]GTPγS functional assays. […]
was terminated by diluting the samples with an ice-cold wash buffer (50 mM of Tris-HCl, 2.5 mM of EGTA, 5 mM of MgCl2, 0.5% fatty acid free BSA, pH 7.4), followed by repeated washing and rapid filtration through Whatman GF/B glass fiber filters (Whatman Ltd., Maidstone, UK) pre-soaked with 0.1% polyethyleneimine (30 min before the filtration). Filtration was performed with a 24-well Brandel Cell Harvester (Gaithersburg, MD, USA). Filters were air-dried and immersed into Ultima Gold MV scintillation cocktail, and then radioactivity was measured with a TRI-CARB 2100TR liquid scintillation analyzer (Packard, Perkin Elmer, Waltham, MA, USA).
Ligand Stimulated [35S]GTPγS Binding Assay
Rat brain membranes (30 µg protein/tube), prepared as described above, were incubated with 0.05 nM of […]
mM of NaCl, 3 mM of MgCl2 and 1 mM of EGTA in a 50 mM Tris-HCl buffer (pH 7.4) for 60 min at 30 °C. Basal [35S]GTPγS binding was measured in the absence of ligands and set as 100%. Nonspecific […]
binding was determined by the addition of 10 µM unlabelled GTPγS and subtracted from total binding.
Incubation, filtration and radioactivity measurements of the samples were carried out as described above. […]
All […]
data and curves were analyzed by GraphPad Prism 5.0 (San Diego, CA, USA).

## CNC(=O)[C@@H](NC(=O)c1nn(-c2ccc(Cl)cc2)c(-n2cccc2)c1C)C(C)(C)C [Compound 34, RS2691-tLeu-NHCH3]
mice; 100 μg/20 μL s.c., 15 min before zymosan
  anti-inflammatory effect on zymosan-induced paw volume increase: significantly reduce paw volume increase induced by zymosan from 1 to 4 h; also recorded: reduced the paw volume increase from 1 to 4 h
mice; s.c. injection, for 24 h
  percentage of paw volume in zymosan-induced hindlimb edema: below 75%
CB1R; from [35S]GTPγS binding
  CB1R functional profile (agonist / antagonist / inverse agonist): agonist
CB1R; ± SEM, read-out: [35S]GTPγS stimulation EC50
  EC50: 46 ± 4.1 nM
